Measurements: patent US20220202906A1, “VASOACTIVE INTESTINAL PEPTIDE (VIP) FOR USE IN THE TREATMENT OF DRUG-INDUCED PNEUMONITIS” (ADVITA L[…], priority 2019, published 2022)

What was measured:
[1] = Aerosol characterisation with M-Neb dose+ mesh nebulizer MN-300/8 and COPLEY next generation impactor (NGI); type: physicochemical; conditions: VIP dissolved in 0.9% NaCl
From the text: Using the M-Neb® dose+ mesh nebulizer MN-300/8 and the respective mouthpiece, VIP has been tested with the COPLEY next generation impactor (NGI). The mass median aerodynamic diameter (MMD) of VIP dissolved in 0.9% NaCl was 3.3-3.5 μm per emitted particle.

[2] = Off-label inhaled VIP therapy in a patient with checkpoint inhibitor-induced pneumonitis; type: in vivo, human
Protocol: A patient, who was treated with checkpoint inhibitors, developed CIP and steroid treatment led to insufficient control. Because of missing other approved therapeutic options the patient was treated off-label with inhaled VIP therapy initiated at a dose of 4×70 μg/ml per day dosage (280 μg per day with overnight break).

[3] = human, in vivo
[4] = Blood level of VIP after aerosol administration; type: in vivo
From the text: This is especially unexpected as the treatment with aerosols is normally regarded to be only efficient if inhaled noxes are the cause of the pulmonary defects. In the context of the present invention, a systemic substance is, however, the cause of drug-induced pneumonitis (such as CIP) and therefore topic administration is not expected to have any great effect.

[5] = sarcoidosis, inhaled aerosolized VIP; cited from earlier work
[6] = 50 μg four times daily by inhalation, 28 days; cited from earlier work
[7] = CIP patient, inhaled VIP 280 μg per day

CC[C@H](C)[C@H](NC(=O)[C@H](CO)NC(=O)[C@H](CC(N)=O)NC(=O)[C@H](CC(C)C)NC(=O)[C@H](Cc1ccc(O)cc1)NC(=O)[C@H](CCCCN)NC(=O)[C@H](CCCCN)NC(=O)[C@@H](NC(=O)[C@H](C)NC(=O)[C@H](CCSC)NC(=O)[C@H](CCC(N)=O)NC(=O)[C@H](CCCCN)NC(=O)[C@H](CCCNC(=N)N)NC(=O)[C@H](CC(C)C)NC(=O)[C@H](CCCNC(=N)N)NC(=O)[C@@H](NC(=O)[C@H](Cc1ccc(O)cc1)NC(=O)[C@H](CC(N)=O)NC(=O)[C@H](CC(=O)O)NC(=O)[C@@H](NC(=O)[C@H](Cc1ccccc1)NC(=O)[C@@H](NC(=O)[C@H](C)NC(=O)[C@H](CC(=O)O)NC(=O)[C@H](CO)NC(=O)[C@@H](N)Cc1c[nH]cn1)C(C)C)[C@@H](C)O)[C@@H](C)O)C(C)C)C(=O)N[C@@H](CC(C)C)C(=O)N[C@@H](CC(N)=O)C(N)=O [VIP, Vasoactive intestinal peptide]
dose delivered at the mouthpiece ([1]; M-Neb dose+ MN-300/8): 90.2 % of the tested dosages | particles with a diameter ([1]; M-Neb dose+ MN-300/8): 85.7% | mass median aerodynamic diameter (MMD) per emitted particle ([1]; M-Neb dose+ MN-300/8 with mouthpiece): 3.3-3.5 μm | alveolar inflammation as measured by bronchoalveolar lavage [2, 7]: dampened by an increase of regulatory T-cell | patient's general health [2, 7]: ameliorated | radiological alterations (e.g. consolidations) [2, 7]: diminished | lung function ([2]; CIP patient, inhaled VIP 4×70 μg per day (280 μg per day)): normalized within six months of treatment | side effects on the patient's immune system ([2]; VIP inhalation in CIP): does not suffer from severe side effects on the patient's immune system | clinical outcome [3]: clinical amelioration | blood level of VIP [4]: does not lead to an elevated blood level of VIP | TNF-release [5]: decrease of TNF-release | regulatory T-cells [5]: increase of regulatory T-cells | symptoms [5]: symptomatic relief | tolerability / adverse events [6]: well tolerated without serious adverse events
